Measurements published in article PMC3234597, “Two Panels of Steroid Receptor Luciferase Reporter Cell Lines for Compound Profiling” (Combinatorial Chemistry & High Throughput Screening, 2011).
Where two headings read alike, the source gives them in different places.

What was measured:
Format in all cases: cell-based
[1] = molecular target: T1, human MR (full-length) (Homo sapiens, UniProt P08235); experiment: U2OS-MR/MMTV luciferase reporter cell line (full-length receptor); settings: read-out: Log EC50 (converted)
T1 construct: expression vectors encoding full-length steroid receptors: pcDNA3-hAR, pcDNA3-hGR and pcDNA3-hMR; expressed in transfected cells; host or cells: U2OS
T1 sequence (P08235 1-984): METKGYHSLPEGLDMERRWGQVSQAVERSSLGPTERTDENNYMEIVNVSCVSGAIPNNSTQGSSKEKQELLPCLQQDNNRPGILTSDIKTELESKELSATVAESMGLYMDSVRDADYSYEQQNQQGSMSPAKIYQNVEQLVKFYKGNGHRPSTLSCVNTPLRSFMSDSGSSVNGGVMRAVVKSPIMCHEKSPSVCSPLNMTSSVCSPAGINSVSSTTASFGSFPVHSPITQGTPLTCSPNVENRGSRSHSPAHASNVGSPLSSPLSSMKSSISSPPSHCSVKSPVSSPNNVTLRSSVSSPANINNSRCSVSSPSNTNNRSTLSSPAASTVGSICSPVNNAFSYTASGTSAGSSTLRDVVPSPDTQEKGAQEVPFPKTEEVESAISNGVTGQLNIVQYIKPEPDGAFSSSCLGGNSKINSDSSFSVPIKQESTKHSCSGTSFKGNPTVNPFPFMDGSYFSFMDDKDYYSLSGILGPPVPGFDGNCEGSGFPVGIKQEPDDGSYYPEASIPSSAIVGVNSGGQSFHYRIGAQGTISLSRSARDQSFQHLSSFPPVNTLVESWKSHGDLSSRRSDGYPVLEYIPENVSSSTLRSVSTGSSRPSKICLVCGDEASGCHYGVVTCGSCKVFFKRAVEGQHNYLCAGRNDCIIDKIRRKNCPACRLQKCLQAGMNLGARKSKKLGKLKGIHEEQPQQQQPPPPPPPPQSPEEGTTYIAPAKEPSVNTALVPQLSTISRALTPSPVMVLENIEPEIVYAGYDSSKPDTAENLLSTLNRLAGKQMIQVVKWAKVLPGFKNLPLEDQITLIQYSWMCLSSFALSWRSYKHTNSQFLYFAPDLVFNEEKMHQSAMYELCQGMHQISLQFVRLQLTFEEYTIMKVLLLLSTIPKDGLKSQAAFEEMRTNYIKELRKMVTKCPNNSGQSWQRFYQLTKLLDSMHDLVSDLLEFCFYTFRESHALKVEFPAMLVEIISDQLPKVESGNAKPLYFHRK

[2] = molecular target: T2, ERα^G420C-LBD fused to Gal4-DBD (Homo sapiens, UniProt P03372, G420C); experiment: U2OS-ERα^G420C-LBD/9xGal4UAS luciferase reporter cell line
T2 construct: expressed in transfected cells; host or cells: U2OS
T2 sequence (P03372 311-547 G420C limits assumed): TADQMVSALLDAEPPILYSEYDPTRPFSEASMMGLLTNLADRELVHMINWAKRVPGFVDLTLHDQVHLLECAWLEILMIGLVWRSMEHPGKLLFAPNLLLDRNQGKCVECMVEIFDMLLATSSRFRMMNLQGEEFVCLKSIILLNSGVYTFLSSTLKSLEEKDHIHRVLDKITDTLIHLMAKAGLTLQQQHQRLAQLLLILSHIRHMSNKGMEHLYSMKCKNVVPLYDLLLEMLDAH

[3] = molecular target: T3, ERα^wt-LBD fused to Gal4-DBD (Homo sapiens, UniProt P03372); experiment: U2OS-ERα^wt-LBD/9xGal4UAS luciferase reporter cell line
T3 construct: ERα-LBD (amino acids 303-595) based on GenBank NM_000125; expressed in transfected cells; host or cells: U2OS
T3 sequence (P03372 303-595): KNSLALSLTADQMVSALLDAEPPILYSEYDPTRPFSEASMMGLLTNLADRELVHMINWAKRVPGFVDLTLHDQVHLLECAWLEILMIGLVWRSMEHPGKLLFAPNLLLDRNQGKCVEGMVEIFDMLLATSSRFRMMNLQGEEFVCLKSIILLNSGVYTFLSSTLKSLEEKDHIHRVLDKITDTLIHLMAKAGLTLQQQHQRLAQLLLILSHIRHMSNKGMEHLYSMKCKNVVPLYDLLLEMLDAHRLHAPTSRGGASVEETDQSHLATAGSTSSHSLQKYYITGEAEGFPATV

[4] = molecular target: T4, MR-LBD fused to Gal4-DBD (Homo sapiens, UniProt P08235); experiment: U2OS-MR-LBD/9xGal4UAS luciferase reporter cell line; settings: read-out: Log EC50 (converted)
T4 construct: MR-LBD was cloned by RT-PCR from total RNA isolated from HEK293 cells; expressed in transfected cells; host or cells: U2OS
T4 sequence (P08235 726-964 limits assumed): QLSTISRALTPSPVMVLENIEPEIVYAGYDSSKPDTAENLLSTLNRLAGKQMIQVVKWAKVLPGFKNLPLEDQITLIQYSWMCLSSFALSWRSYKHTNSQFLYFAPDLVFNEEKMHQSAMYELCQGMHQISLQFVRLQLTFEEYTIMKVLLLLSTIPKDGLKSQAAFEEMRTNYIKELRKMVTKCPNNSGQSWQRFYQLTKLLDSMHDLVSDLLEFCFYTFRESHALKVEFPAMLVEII

[5] = molecular target: T5, human ERα (full-length) (Homo sapiens, UniProt P03372, G400V); experiment: U2OS-ERα/3xERE luciferase reporter cell line (full-length receptor)
T5 sequence (P03372 1-595 G400V): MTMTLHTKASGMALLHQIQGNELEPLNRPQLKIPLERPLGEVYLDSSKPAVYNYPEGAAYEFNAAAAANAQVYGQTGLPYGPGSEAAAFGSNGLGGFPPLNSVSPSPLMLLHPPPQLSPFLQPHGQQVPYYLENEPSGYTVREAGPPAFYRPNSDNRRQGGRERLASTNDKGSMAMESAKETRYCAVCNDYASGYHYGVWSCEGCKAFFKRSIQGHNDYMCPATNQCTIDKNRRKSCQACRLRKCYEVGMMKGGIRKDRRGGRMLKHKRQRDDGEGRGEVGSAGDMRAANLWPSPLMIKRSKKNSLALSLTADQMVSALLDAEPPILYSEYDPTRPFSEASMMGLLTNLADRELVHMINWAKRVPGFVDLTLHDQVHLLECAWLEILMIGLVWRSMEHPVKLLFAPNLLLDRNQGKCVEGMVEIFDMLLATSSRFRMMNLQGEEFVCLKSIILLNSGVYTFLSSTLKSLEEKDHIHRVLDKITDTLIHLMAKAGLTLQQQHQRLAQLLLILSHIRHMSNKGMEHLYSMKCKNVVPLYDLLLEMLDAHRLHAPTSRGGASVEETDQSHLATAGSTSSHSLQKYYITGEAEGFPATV

[6] = molecular target: T6, PR-LBD fused to Gal4-DBD (Homo sapiens, UniProt P06401); experiment: U2OS-PR-LBD/9xGal4UAS luciferase reporter cell line
T6 construct: PR-LBD region was PCR amplified using the following primer combination; host or cells: U2OS
T6 sequence (P06401 679-913 limits assumed): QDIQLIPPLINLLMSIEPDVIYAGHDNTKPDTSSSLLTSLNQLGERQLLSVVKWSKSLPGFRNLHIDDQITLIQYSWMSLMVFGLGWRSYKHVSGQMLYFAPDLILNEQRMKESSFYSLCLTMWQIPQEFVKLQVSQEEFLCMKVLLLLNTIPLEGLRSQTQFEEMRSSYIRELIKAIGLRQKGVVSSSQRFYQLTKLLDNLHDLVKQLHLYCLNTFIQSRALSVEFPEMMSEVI

[7] = molecular target: T7, ERβ-LBD fused to Gal4-DBD (Homo sapiens, UniProt Q92731); experiment: U2OS-ERβ-LBD/9xGal4UAS luciferase reporter cell line; settings: read-out: Log EC50 (converted)
T7 construct: region comprising ERβ-LBD and a piece of the hinge region; expressed in transfected cells; host or cells: U2OS

[8] = molecular target: T8, human ERβ (full-length) (Homo sapiens, UniProt Q92731); experiment: U2OS-ERβ/3xERE luciferase reporter cell line (full-length receptor); settings: read-out: Log EC50 (converted)
T8 construct: expression vectors encoding full-length steroid receptors: pcDNA3-hERα and pcDNA3-ERβ; expressed in transfected cells; host or cells: U2OS

[9] = molecular target: T9, human GR (full-length) (Homo sapiens, UniProt P04150); experiment: U2OS-GR/3xGRE luciferase reporter cell line (full-length receptor)
T9 construct: expression vectors encoding full-length steroid receptors: pcDNA3-hAR and pcDNA3-hGR; host or cells: U2OS
T9 sequence (P04150 1-777): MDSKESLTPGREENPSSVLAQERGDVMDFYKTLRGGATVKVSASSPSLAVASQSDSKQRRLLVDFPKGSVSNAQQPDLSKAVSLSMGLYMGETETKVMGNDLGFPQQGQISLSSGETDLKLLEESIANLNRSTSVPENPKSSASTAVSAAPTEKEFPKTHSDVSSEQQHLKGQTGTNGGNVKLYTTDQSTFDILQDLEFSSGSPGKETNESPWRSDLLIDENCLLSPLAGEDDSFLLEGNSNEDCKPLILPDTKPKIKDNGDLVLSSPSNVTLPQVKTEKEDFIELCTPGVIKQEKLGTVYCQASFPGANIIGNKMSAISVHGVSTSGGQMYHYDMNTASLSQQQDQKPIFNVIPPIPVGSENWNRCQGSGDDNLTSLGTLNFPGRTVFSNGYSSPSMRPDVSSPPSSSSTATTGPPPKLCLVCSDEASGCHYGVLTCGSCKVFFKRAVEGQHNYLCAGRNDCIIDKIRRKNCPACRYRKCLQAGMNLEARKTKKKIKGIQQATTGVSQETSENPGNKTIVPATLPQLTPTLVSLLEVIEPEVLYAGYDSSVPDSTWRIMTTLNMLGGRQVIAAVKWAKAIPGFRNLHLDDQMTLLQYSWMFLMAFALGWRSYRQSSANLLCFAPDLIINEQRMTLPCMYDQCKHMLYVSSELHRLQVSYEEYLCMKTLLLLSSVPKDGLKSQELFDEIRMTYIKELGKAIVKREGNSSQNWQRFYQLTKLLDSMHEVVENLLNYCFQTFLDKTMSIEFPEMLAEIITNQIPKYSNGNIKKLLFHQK

[10] = molecular target: T9, human GR (full-length); experiment: U2OS-GR/MMTV luciferase reporter cell line (full-length receptor)
[11] = molecular target: T10, GR-LBD fused to Gal4-DBD (Homo sapiens, UniProt P04150); experiment: U2OS-GR-LBD/9xGal4UAS luciferase reporter cell line
T10 construct: expressed in transfected cells; host or cells: U2OS
T10 sequence (P04150 524-758 limits assumed): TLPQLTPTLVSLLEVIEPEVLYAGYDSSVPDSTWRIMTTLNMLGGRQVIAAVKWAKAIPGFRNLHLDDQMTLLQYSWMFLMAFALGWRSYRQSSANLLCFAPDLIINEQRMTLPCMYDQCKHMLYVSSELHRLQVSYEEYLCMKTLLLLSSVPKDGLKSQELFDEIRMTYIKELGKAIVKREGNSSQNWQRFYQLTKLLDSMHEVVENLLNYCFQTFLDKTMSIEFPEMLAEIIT

T8 sequence (Q92731 whole entry): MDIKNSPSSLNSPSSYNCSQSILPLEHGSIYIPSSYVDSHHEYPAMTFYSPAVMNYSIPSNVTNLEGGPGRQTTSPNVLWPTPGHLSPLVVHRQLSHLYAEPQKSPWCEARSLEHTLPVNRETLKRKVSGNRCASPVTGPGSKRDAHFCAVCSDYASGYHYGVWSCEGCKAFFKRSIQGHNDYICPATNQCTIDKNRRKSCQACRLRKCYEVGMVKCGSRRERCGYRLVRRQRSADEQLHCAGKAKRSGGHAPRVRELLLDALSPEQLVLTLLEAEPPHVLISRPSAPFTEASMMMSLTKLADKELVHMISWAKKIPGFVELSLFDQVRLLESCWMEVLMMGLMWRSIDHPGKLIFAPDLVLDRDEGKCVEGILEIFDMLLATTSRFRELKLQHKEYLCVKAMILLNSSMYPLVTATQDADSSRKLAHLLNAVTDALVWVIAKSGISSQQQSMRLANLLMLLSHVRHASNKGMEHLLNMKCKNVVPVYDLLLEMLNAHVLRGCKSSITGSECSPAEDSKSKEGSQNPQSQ
T7 sequence (Q92731 264-498 limits assumed): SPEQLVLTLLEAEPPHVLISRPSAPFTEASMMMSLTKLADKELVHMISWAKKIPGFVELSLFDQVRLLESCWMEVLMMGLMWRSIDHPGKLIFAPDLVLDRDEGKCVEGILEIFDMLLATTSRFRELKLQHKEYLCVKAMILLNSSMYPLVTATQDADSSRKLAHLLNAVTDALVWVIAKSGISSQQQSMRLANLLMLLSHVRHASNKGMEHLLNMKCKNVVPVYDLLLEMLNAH

CC(C)C(=O)Nc1ccc([N+](=O)[O-])c(C(F)(F)F)c1 [Flutamide, flutamide]
> 10 µM: EC50 [1] | EC50 [2] | EC50 [3] | EC50 [4] | EC50 [5] | IC50 ([6]; antagonist mode, PR-LBD/9xGal4UAS, log10 of molar IC50, mean ± SEM, read-out: Log IC50 (converted)) | EC50 ([6]; read-out: Log EC50 (converted)) | EC50 [7] | EC50 [8]

CC(=O)S[C@@H]1CC2=CC(=O)CC[C@]2(C)[C@H]2CC[C@@]3(C)[C@@H](CC[C@@]34CCC(=O)O4)[C@H]12 [Spironolactone, spironolactone]
> 10 µM: EC50 [2] | EC50 [3] | EC50 ([5]; Log EC50, agonist mode, ERα/3xERE, 20 h, value is log10 of molar EC50, mean ± SEM) | EC50 [9] | EC50 [10] | EC50 [11]
